Results on three compounds are retold here after patent US20030105138A1, “Method of treatment for decreasing mortality resulting from congestive heart failure” (Boehringer Mannheim Pharmaceuticals Corporation- SmithKline …, priority 1995, published 2003).

In experiment [1] the test system is patients with CHF. As to the kind of experiment: US Carvedilol Heart Failure Trials: mortality studies in CHF patients (multicenter, double-blind, placebo-controlled, intention-to-treat). In kind it is in vivo, humans. Further details: All Cause Mortality / Risk Reduction, all-cause mortality / Mortality / Risk Reduction, mortality: concentration or dose not given beside the values. The following applies: for Risk Reduction, mortality / Risk Reduction, all-cause mortality: versus placebo. The text has this: To determine if β-adrenergic blockade might inhibit the deleterious effects of the sympathetic nervous system on survival in heart failure (CHF), 1052 patients with CHF were prospectively enrolled into a multicenter trial program, in which patients were randomly assigned (double-blind) to 6-12 months' treatment with placebo (PBO) or carvedilol (CRV),. After a common screening period, patients with class II-IV CHF (see next paragraph for the definitions of the classification of CHF) and an ejection fraction ≦0.35 were assigned to one of four protocols based on performance on a 6-minute walk test. PBO or CRV was added to existing therapy with digoxin, diuretics and an ACE inhibitor. All-cause mortality was monitored by a prospectively constituted Data and Safety Monitoring Board (DSMB). After 25 months of enrollment, the DSMB recommended termination of the program because of a favorable effect of CRV on survival. By intention-to-treat, mortality was 8.2% in the PBO group but only 2.9% in the CRV group (P=0.0001, Cochran-Mantel-Haensel analysis). This represented a reduction in risk of death by CRV of 67% (95% CI: 42% to 81%). The treatment effect was similar in patients with class II and class III-IV symptoms. Mortality was reduced in class II patients from 5.9% to 1.9%, a 68% reduction (95% CI: 20% to 97%) [P=0.015,], and in class III-IV patients from 11.0% to 4.2%, a 67% reduction (95% CI: 30% to 84%), [P=0.004, log-rank]. Importantly, the effect of CRV was similar in ischemic heart disease (risk reduced by 67%, P=0.003) and in non-ischemic dilated cardiomyopathy (risk reduced by 67%, P=0.014). […] The treatment effect is seen across a broad range of severity and etiology of disease.
Patients on background therapy with diuretics, ACE inhibitors and/or digoxin were stratified on the basis of baseline submaximal exercise performance, into one of four trials: study 220, a dose response study in moderate (NYHA II-IV) CHF with exercise testing as a primary endpoint study 221, a dose titration study in moderate (NYHA II-IV) CHF with exercise testing as a primary endpoint study 239, a dose titration study in severe (NYHA III-IV) CHF with quality of life as a primary endpoint study 240, a dose titration study in mild (NYHA II-III) CHF with progression of CHF as a primary endpoint Sixty-four centers in the U.S. participated in the trial program. All sites conducted protocols 239 and 240, while 33 performed protocol 220 and 31 performed protocol 221.
Although each trial had its own individual objectives, the overall program objective defined prospectively was evaluation of all-cause mortality. Based upon a projected enrollment of 1100 patients, the program had 90% power to detect a 50% reduction in mortality (two-sided) between carvedilol and placebo, assuming a mortality rate in the placebo group of 12% over the duration of the trials (α=0.05).
Randomization was preceded by a screening and challenge period common to the four protocols The purpose of the screening period was to qualify patients for study entry, obtain reproducible baseline measurements, and stratify patients into the appropriate trial based on submaximal exercise testing. During the challenge period, patients received low-dose open-label carvedilol (6.25 mg b.i.d.) for two weeks. […] Patients tolerating low-dose carvedilol were then randomized to blinded medication (carvedilol or placebo) with the dose titrated over several weeks in the range of 6.25 to 50 mg b.i.d. (or equivalent level of placebo). The maintenance phase of each study ranged from six to 12 months, after which patients had the option of receiving open-label carvedilol in an extension study.
The analysis presented below corresponds to the data set on which the DSMB made the recommendation to terminate the trials. Included in this intent-to-treat analysis are all patients enrolled in the U.S. trials as of Jan. 20, 1995; 624 receiving carvedilol and 356 placebo.

Experiment [2] concerns patients with CHF. Particulars: treatment of CHF; cited from earlier work.
[3] abbreviates: Class III-IV CHF, listed as CRV.

Consider `COc1ccccc1OCCNCC(O)COc1cccc2[nH]c3ccccc3c12` (stereo not shown) [Carvedilol], for which the Mortality result in the experiment with patients with CHF [1] (Class II CHF) is recorded as “(1.9%)”; in the experiment on patients with CHF [1] (Class II CHF, listed as CRV), 1.9%; with patients with CHF [1] (Class III-IV CHF), “(4.2%)”; in the experiment with patients with CHF [1] (setting [3]), 4.2%; in the experiment on patients with CHF [1] (Ischemic Etiology), “(3.2%)”; in the experiment with patients with CHF [1] (Non-Ischemic Etiology) it was “(2.5%)”. Moreover, the “Mortality (deaths/patients)” value is reported as 7/361 in the experiment with patients with CHF [1] (Class II CHF), 11/263 in the experiment on patients with CHF [1] (Class III-IV CHF), 10/311 with patients with CHF [1] (Ischemic Etiology) and 8/313 with patients with CHF [1] (Non-Ischemic Etiology). For the same compound, the “Risk Reduction, mortality” value in the experiment with patients with CHF [1] (Class II CHF) is on record as 68%; in the experiment with patients with CHF [1] (Class II CHF, listed as CRV) it was 68%; in the experiment with patients with CHF [1] (Class III-IV CHF), 66%; in the experiment with patients with CHF [1] (setting [3]) it was 67%; in the experiment with patients with CHF [1] (Ischemic Etiology), 67%; with patients with CHF [1] (Ischemic Etiology, listed as CRV) it was 67%. The “Risk Reduction, mortality” value in the experiment with patients with CHF [1] (Non-Ischemic Etiology) turned out to be 67%; with patients with CHF [1] (Non-Ischemic Etiology, listed as CRV) it was 67%. Further, the “All Cause Mortality” value is “(2.9%)” in the experiment on patients with CHF [1] (all patients, intent-to-treat) and 2.9% in the experiment with patients with CHF [1] (all patients, intent-to-treat, listed as CRV). Also, the “All Cause Mortality (deaths/patients)” value in the experiment with patients with CHF [1] (all patients, intent-to-treat, added to digoxin, diuretics and ACE inhibitor, 6.25 to 50 mg b.i.d.) is recorded as 18/624. Besides, the “Risk Reduction, all-cause mortality” value is listed as 67% with patients with CHF [1] (all patients) and 67% in the experiment with patients with CHF [1] (all patients, listed as CRV).

For the compound `CC(C)NCC(O)COc1ccc(COCCOC(C)C)cc1` (stereo not shown) [bisoprolol], the “Difference in mortality between drug-treated patients and placebo-treated patients” value with patients with CHF [2] was “no difference in mortality”.

Consider `COCCc1ccc(OCC(O)CNC(C)C)cc1` (stereo not shown) [metoprolol], for which, in the experiment with patients with CHF [2], the “Difference in mortality between drug-treated patients and placebo-treated patients” value was “no difference in mortality”.
